{"source": "patent US8952024B2", "about": "“Herbicidal pyrimidone derivatives” (E I du Pont de Nemours and Company, priority 2009, dated 2015)", "assay_in_all_cases": "Test B pre-/postemergence plant response", "type_in_all_cases": "in vivo", "key": {"[1]": {"test_system": "Surinam grass (Brachiaria decumbens)", "details": "Urochloa decumbens; for pest or weed control at 31 g/ha: 31 g ai/ha; for pest or weed control at 62 g/ha: 62 g ai/ha", "from_the_text": "(§1) Seeds of plant species selected from blackgrass (Alopecurus myosuroides), downy bromegrass (Bromus tectorum), green foxtail (Setaria viridis), Italian ryegrass (Lolium multiflorum), wheat (Triticum aestivum), wild oat (Avena fatua), deadnettle (henbit deadnettle, Lamium amplexicaule), galium (catchweed bedstraw, Galium aparine), bermudagrass (Cynodon dactylon), Surinam grass (Brachiaria decumbens), cocklebur (Xanthium strumarium), corn (Zea mays), large crabgrass (Digitaria sanguinalis), woolly cupgrass (Eriochloa villosa), giant foxtail (Setaria faberii), goosegrass (Eleusine indica), johnsongrass (Sorghum halepense), kochia (Kochia scoparia), lambsquarters (Chenopodium album), morningglory (Ipomoea coccinea), nightshade (eastern black nightshade, Solanum ptycanthum), yellow nutsedge (Cyperus esculentus), pigweed (Amaranthus retroflexus), ragweed (common ragweed, Ambrosia elatior), Russian thistle (Salsola kali), soybean (Glycine max), sunflower (common oilseed sunflower, Helianthus annuus) and velvetleaf (Abutilon theophrasti) were planted into a blend of loam soil and sand and treated preemergence with test compounds formulated in a non-phytotoxic solvent mixture which included a surfactant.\n(§2) At the same time, plants selected from these crop and weed species and also winter barley (Hordeum vulgare), canarygrass (Phalaris minor), chickweed (Stellaria media) and windgrass (Apera spica-venti) were planted in pots containing Redi-Earth® planting medium (Scotts Company, 14111 Scottslawn Road, Marysville, Ohio 43041) comprising spaghnum peat moss, vermiculite, wetting agent and starter nutrients and treated with postemergence applications of some of the test chemicals formulated in the same manner. Plants ranged in height from 2 to 18 cm (1- to 4-leaf stage) for postemergence treatments.\n(§3) Treated plants and controls were maintained in a greenhouse for 13 to 15 days, after which time all treated plants were visually evaluated and compared to controls. Plant response ratings, summarized in Table B, are based on a scale of 0 to 100 where 0 is no effect and 100 is complete control. A dash (-) response means no test result."}, "[2]": {"test_system": "Italian ryegrass (Lolium multiflorum)", "details": "for pest or weed control at 31 g/ha: 31 g ai/ha; for pest or weed control at 62 g/ha: 62 g ai/ha", "from_the_text": "as §1, §2, §3"}, "[3]": {"test_system": "ragweed (common ragweed, Ambrosia elatior)", "details": "for pest or weed control at 31 g/ha: 31 g ai/ha; for pest or weed control at 62 g/ha: 62 g ai/ha", "from_the_text": "as §1, §2, §3"}, "[4]": {"test_system": "corn (Zea mays)", "details": "for Corn plant response rating (crop injury, 0 = no effect, 100 = complete kill) at 16 g/ha: 16 g ai/ha; for Corn plant response rating (crop injury, 0 = no effect, 100 = complete kill) at 31 g/ha: 31 g ai/ha; for Corn plant response rating (crop injury, 0 = no effect, 100 = complete kill) at 62 g/ha: 62 g ai/ha", "from_the_text": "as §1, §2, §3"}, "[5]": {"test_system": "soybean (Glycine max)", "details": "Glycine max, post-emergence, Postemergence", "from_the_text": "as §1, §2, §3"}, "[6]": {"details": "pre-emergence, Preemergence, scale 0 to 100 (0 no effect, 100 complete control), read-out: Plant response rating, Surinam Grass"}, "[7]": {"details": "Lolium multiflorum, pre-emergence, Preemergence, scale 0 to 100 (0 no effect, 100 complete control), read-out: Plant response rating, Ryegrass, Italian"}, "[8]": {"details": "Preemergence, 125 g ai/ha, 0 to 100 scale"}, "[9]": {"details": "Ambrosia artemisiifolia, pre-emergence, 360 h, Preemergence, scale 0 to 100 (0 no effect, 100 complete control), read-out: Plant response rating, Ragweed"}, "[10]": {"details": "Zea mays, pre-emergence, Preemergence, scale 0 to 100 (0 no effect, 100 complete control)"}}, "note": "Read-outs that look alike come from different tables or passages of the source.", "data": [{"molecule": "O=C1CCCC(O)=C1C(=O)c1cnc(-c2ccccc2)n(-c2ccccc2)c1=O", "note": "[Compound 2, 5-[(2-hydroxy-6-oxo-1-cyclohexen-1-yl)carbonyl]-2,3-diphenyl-4(3H)-pyrimidinone]", "values": [{"measurement": "pest or weed control at 16 g/ha", "setting": "[1]; post-emergence, 16 g ai/ha, Postemergence, 0 to 100 scale, read-out: Plant response rating, Surinam Grass", "result": 70, "unit": "%"}, {"measurement": "pest or weed control at 31 g/ha", "setting": "[1]; post-emergence, Postemergence, scale 0 to 100 (0 no effect, 100 complete control), read-out: Plant response rating, Surinam Grass", "result": 70, "unit": "%"}, {"measurement": "pest or weed control at 62 g/ha", "setting": "[1]; post-emergence, Postemergence, scale 0 (no effect) to 100 (complete control), 13 to 15 days, read-out: Plant response rating, Surinam Grass", "result": 75, "unit": "%"}, {"measurement": "pest or weed control at 125 g/ha", "setting": "[1]; post-emergence, Postemergence, 125 g ai/ha, visual rating after 13 to 15 days, scale 0 (no effect) to 100 (complete control)", "result": 85, "unit": "%"}, {"measurement": "pest or weed control at 31 g/ha", "setting": "[1]; [6]", "result": 15, "unit": "%"}, {"measurement": "pest or weed control at 62 g/ha", "setting": "[1]; [6]", "result": 20, "unit": "%"}, {"measurement": "pest or weed control at 16 g/ha", "setting": "[2]; Lolium multiflorum, post-emergence, 16 g ai/ha, Postemergence, 0 to 100 scale, read-out: Plant response rating, Ryegrass, Italian", "result": 0, "unit": "%"}, {"measurement": "pest or weed control at 31 g/ha", "setting": "[2]; Lolium multiflorum, post-emergence, Postemergence, scale 0 to 100 (0 no effect, 100 complete control), read-out: Plant response rating, Ryegrass, Italian", "result": 0, "unit": "%"}, {"measurement": "pest or weed control at 62 g/ha", "setting": "[2]; Lolium multiflorum, post-emergence, Postemergence, scale 0 (no effect) to 100 (complete control), 13 to 15 days, read-out: Plant response rating, Ryegrass, Italian", "result": 40, "unit": "%"}, {"measurement": "pest or weed control at 125 g/ha", "setting": "[2]; Lolium multiflorum, post-emergence, Postemergence, 125 g ai/ha, visual rating after 13 to 15 days, scale 0 (no effect) to 100 (complete control)", "result": 40, "unit": "%"}, {"measurement": "pest or weed control at 31 g/ha", "setting": "[2]; [7]", "result": 0, "unit": "%"}, {"measurement": "pest or weed control at 62 g/ha", "setting": "[2]; [7]", "result": 0, "unit": "%"}, {"measurement": "Ryegrass, Italian plant response rating", "setting": "[2]; [8]", "result": 5}, {"measurement": "pest or weed control at 16 g/ha", "setting": "[3]; Ambrosia artemisiifolia, post-emergence, 360 h, 16 g ai/ha, Postemergence, 0 to 100 scale, read-out: Plant response rating, Ragweed", "result": 65, "unit": "%"}, {"measurement": "pest or weed control at 31 g/ha", "setting": "[3]; Ambrosia artemisiifolia, post-emergence, 360 h, Postemergence, scale 0 to 100 (0 no effect, 100 complete control), read-out: Plant response rating, Ragweed", "result": 70, "unit": "%"}, {"measurement": "pest or weed control at 62 g/ha", "setting": "[3]; Ambrosia artemisiifolia, post-emergence, 360 h, Postemergence, scale 0 (no effect) to 100 (complete control), 13 to 15 days, read-out: Plant response rating, Ragweed", "result": 80, "unit": "%"}, {"measurement": "pest or weed control at 125 g/ha", "setting": "[3]; Ambrosia artemisiifolia, post-emergence, 360 h, Postemergence, 125 g ai/ha, visual rating after 13 to 15 days, scale 0 (no effect) to 100 (complete control)", "result": 90, "unit": "%"}, {"measurement": "pest or weed control at 31 g/ha", "setting": "[3]; [9]", "result": 60, "unit": "%"}, {"measurement": "pest or weed control at 62 g/ha", "setting": "[3]; [9]", "result": 85, "unit": "%"}, {"measurement": "Ragweed plant response rating", "setting": "[3]; [8]", "result": 98}, {"measurement": "Corn plant response rating", "setting": "[4]; [8]", "result": 0}, {"measurement": "Corn plant response rating (crop injury, 0 = no effect, 100 = complete kill) at 16 g/ha", "setting": "[4]; Zea mays, post-emergence, Postemergence, 0 to 100 scale", "result": 15, "unit": "%"}, {"measurement": "Corn plant response rating (crop injury, 0 = no effect, 100 = complete kill) at 31 g/ha", "setting": "[4]; Zea mays, post-emergence, Postemergence, scale 0 to 100 (0 no effect, 100 complete control)", "result": 15, "unit": "%"}, {"measurement": "Corn plant response rating (crop injury, 0 = no effect, 100 = complete kill) at 62 g/ha", "setting": "[4]; Zea mays, post-emergence, Postemergence, scale 0 (no effect) to 100 (complete control), 13 to 15 days", "result": 25, "unit": "%"}, {"measurement": "Corn plant response rating (crop injury, 0 = no effect, 100 = complete kill) at 125 g/ha", "setting": "[4]; Zea mays, post-emergence, Postemergence, 125 g ai/ha, visual rating after 13 to 15 days, scale 0 (no effect) to 100 (complete control)", "result": 35, "unit": "%"}, {"measurement": "Corn plant response rating (crop injury, 0 = no effect, 100 = complete kill) at 16 g/ha", "setting": "[4]; [10]", "result": 0, "unit": "%"}, {"measurement": "Corn plant response rating (crop injury, 0 = no effect, 100 = complete kill) at 31 g/ha", "setting": "[4]; [10]", "result": 0, "unit": "%"}, {"measurement": "Corn plant response rating (crop injury, 0 = no effect, 100 = complete kill) at 62 g/ha", "setting": "[4]; Zea mays, pre-emergence, Preemergence, scale 0 to 100, 0 no effect, 100 complete control", "result": 0, "unit": "%"}, {"measurement": "plant injury at 16 g/ha", "setting": "[5]; 16 g ai/ha, 0 to 100 scale, read-out: Plant response rating, Soybean", "result": 75, "unit": "%"}, {"measurement": "plant injury at 31 g/ha", "setting": "[5]; 31 g ai/ha, scale 0 to 100 (0 no effect, 100 complete control), read-out: Plant response rating, Soybean", "result": 80, "unit": "%"}, {"measurement": "plant injury at 62 g/ha", "setting": "[5]; 62 g ai/ha, scale 0 (no effect) to 100 (complete control), 13 to 15 days, read-out: Plant response rating, Soybean", "result": 90, "unit": "%"}, {"measurement": "plant injury at 125 g/ha", "setting": "[5]; 125 g ai/ha, visual rating after 13 to 15 days, scale 0 (no effect) to 100 (complete control)", "result": 95, "unit": "%"}]}]}
